Data on 1 compound can be found in ChEMBL document CHEMBL5154903 (J Med Chem, 2022).

By ΔTm is commonly meant the shift of the melting midpoint relative to a reference. In general, inhibition refers to the percentage by which the read-out fell short of the control. Broadly, the half-life is the time needed for the level to fall by half in the phase considered. As usually defined, the AUC(0-inf) is the area under the concentration-time curve extrapolated to infinity. A high value points to more exposure.

For data set [1], the target named is T1, Thyroid hormone receptor alpha (Homo sapiens) (UniProt P10827).
T1 sequence (whole entry): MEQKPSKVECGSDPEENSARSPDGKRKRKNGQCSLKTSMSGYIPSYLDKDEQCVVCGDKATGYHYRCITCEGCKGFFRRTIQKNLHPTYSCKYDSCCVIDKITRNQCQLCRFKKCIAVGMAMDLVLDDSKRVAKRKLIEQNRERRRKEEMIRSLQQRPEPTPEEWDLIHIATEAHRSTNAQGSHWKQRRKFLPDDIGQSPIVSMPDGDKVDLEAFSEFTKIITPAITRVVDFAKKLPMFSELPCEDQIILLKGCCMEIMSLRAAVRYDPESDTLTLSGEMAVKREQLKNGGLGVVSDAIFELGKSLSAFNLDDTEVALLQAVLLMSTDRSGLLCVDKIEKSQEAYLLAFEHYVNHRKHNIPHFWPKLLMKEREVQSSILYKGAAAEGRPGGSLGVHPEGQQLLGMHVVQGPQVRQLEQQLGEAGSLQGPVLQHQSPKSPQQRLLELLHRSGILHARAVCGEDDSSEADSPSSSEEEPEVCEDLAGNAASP
As to conditions: filed as agonist, dose 10.0 µM.

In data set [2] the test system is HepG2. Description: Inhibition of lipid metabolism in human HepG2 cells assessed as increase in CPT1 levels at 10 uM incubated for 24 hrs by Western blot analysis. Format: functional, cell-based.
In data set [3] the test system is HepG2. Put plainly: Inhibition of lipid metabolism in human HepG2 cells assessed as reduction in total lipid accumulation at 10 uM incubated for 24 hrs by oil red O staining based inverted microscopic analysis. The data set is classed as functional, cell-based.
Data set [4] can be described thus: Microsomal stability in human liver microsomes assessed as half life at 1 uM incubated for 60 mins by HPLC-MS/MS analysis. Format: ADME, Microsome. (In general: Liver microsomes are a subcellular fraction often used to study metabolism.)
Another data set has as its target Egl nine homolog 1 (Homo sapiens, UniProt Q9GZT9). Description: Binding affinity to PHD2 (unknown origin) assessed as change in melting temperature at 10 uM in presence of ZnSO4 by thermal shift assay.
A short description of data set [5]: AUC (0 to infinity) in overnight fasted Sprague-Dawley rat at 5 mg/kg, po measured upto 24 hrs. The data set is classed as ADME, organism-based. The arrangement: dose 5 mg/kg, time < 24 hrs, route po. To be noted: in vivo.
A further data set addresses CYP2C19 (Homo sapiens, UniProt P33261). Put plainly: Inhibition of CYP2C19 in human liver microsomes at 10 uM incubated for 45 mins by LC-MS/MS analysis relative to control. The data set is classed as ADME, Microsome.
Data set [6] concerns HepG2. Description: Cytotoxicity against human HepG2 cells assessed as reduction in cell viability at 10 uM incubated for 72 to 96 hrs by Celltiter-Glo assay. The data set is classed as toxicity, cell-based. As to conditions: hepg2, 10 µM, time 72-96 hrs.
In the next data set the target is CYP2C9 (Homo sapiens, UniProt P11712). Description: Inhibition of CYP2C9 in human liver microsomes at 10 uM incubated for 10 mins by LC-MS/MS analysis relative to control. Format: ADME, Microsome.
Data set [7] can be described thus: Half life in overnight fasted Sprague-Dawley rat at 5 mg/kg, iv measured upto 24 hrs. Format: ADME, organism-based. As to conditions: in vivo.
The nature of data set [8]: Half life in overnight fasted Sprague-Dawley rat at 5 mg/kg, po measured upto 24 hrs. Format: ADME, organism-based. To be noted: in vivo.

Activity calls are given as the source filed them.

Chain of CYP2C9 (P11712 whole entry): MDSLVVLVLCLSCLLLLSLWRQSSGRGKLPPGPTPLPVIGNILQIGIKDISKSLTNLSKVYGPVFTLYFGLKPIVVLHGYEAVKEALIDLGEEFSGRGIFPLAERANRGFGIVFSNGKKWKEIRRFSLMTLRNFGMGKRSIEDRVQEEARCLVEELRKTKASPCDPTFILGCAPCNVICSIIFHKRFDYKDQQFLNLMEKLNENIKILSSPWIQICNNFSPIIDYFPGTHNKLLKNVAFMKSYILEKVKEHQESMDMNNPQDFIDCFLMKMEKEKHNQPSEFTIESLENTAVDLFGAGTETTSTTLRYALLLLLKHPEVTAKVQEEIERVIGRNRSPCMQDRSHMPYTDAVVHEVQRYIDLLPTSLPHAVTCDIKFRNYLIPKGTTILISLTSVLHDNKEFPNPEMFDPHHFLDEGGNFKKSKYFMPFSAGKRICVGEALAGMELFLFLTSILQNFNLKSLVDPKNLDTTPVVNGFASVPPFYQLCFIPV
Chain of Egl nine homolog 1 (Q9GZT9 2-426 limits assumed): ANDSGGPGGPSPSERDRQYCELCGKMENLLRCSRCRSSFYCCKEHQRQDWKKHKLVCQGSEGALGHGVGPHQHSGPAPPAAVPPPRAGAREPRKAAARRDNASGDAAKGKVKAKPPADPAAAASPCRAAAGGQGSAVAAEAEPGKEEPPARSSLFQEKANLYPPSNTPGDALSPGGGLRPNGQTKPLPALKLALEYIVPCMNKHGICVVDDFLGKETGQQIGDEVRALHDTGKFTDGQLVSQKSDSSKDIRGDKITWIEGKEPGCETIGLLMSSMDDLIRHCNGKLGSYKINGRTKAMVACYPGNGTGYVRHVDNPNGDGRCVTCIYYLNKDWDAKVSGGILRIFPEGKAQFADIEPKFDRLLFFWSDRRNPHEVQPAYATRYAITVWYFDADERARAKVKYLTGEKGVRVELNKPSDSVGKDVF
Chain of CYP2C19 (P33261 whole entry): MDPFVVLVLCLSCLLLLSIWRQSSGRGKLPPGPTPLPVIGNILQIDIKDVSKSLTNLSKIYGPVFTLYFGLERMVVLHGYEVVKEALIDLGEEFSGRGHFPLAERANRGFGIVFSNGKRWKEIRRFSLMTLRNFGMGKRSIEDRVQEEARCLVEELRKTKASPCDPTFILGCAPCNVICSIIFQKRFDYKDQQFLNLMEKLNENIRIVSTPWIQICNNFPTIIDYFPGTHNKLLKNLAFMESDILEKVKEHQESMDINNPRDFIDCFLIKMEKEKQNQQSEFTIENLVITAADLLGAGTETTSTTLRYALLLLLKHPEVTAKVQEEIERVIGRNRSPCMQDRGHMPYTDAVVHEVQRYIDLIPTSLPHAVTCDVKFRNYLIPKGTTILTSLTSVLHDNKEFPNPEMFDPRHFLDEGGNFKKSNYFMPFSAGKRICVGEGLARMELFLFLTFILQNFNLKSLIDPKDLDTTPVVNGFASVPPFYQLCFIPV

As for `COc1cc(F)cc(C(=O)c2cc(C)c(Oc3ccc4c(O)c(C(=O)NCC(=O)O)nc(OC)c4c3)c(C)c2)c1`, the ΔTm in data set [1] worked out at 0.1 °C; at Egl nine homolog 1, 1.5 °C. Further, the inhibition entry with HepG2 [2] and in the data set with HepG2 [3] was “Active” throughout. In addition, the half-life at 1 µM in data set [4] is over 2 h. This compound displayed an AUC(0-inf) in [5] of 6830 ng·h/mL. This compound also returned an inhibition at 0.75 h, 10 µM against CYP2C19 of 12%. In addition, the Activity result in the data set with HepG2 [6] is listed as “Non-Toxic”. The inhibition at 10 min, 10 µM on CYP2C9 was 18.4%. For the same compound, the half-life in data set [7] is 1.8 h; in data set [8], 2.58 h.
